Laboratory results taken from ChEMBL document CHEMBL1156829 (Proc Natl Acad Sci U S A, 2008).

What was measured:
Plasmodium falciparum [1] = test: NOVARTIS: Inhibition of Plasmodium falciparum W2 (drug-resistant) proliferation in erythrocyte-based infection assay; type: functional, organism-based; settings: Plasmodium falciparum, W2; read-out: EC50
[2] = NOVARTIS: Cytotoxicity against human hepatocellular carcinoma cell line (Huh7); type: toxicity, cell-based, Huh-7; settings: Huh7 cells (hepatocellular carcinoma cell line)
Plasmodium falciparum [3] = test: NOVARTIS: Inhibition of Plasmodium falciparum 3D7 (drug-susceptible) proliferation in erythrocyte-based infection assay; type: functional, organism-based; settings: Plasmodium falciparum, 3D7

SMILES | EC50 (Plasmodium falciparum [1]) [nM] | CC50 [2] [nM] | EC50 (Plasmodium falciparum [3]) [nM]
C=C[C@H]1CN2CC[C@H]1C[C@@H]2[C@@H](OC(=O)c1ccc(OC)cc1)c1ccnc2ccccc12 | 18.5 | 2610 | 244
Cc1ncc(CN2CCC(C(=O)Nc3ccc(-c4nc5ccccc5o4)cc3)CC2)s1 | 721 | > 100000 | 740
COC1C(OC2OC(C)C(O)C(C)(O)C2OC)c2c(cc3c(c2O)C(=O)c2c(ccc4c2OC2OC4(C)C(OC4CC(C)([N+](=O)[O-])C(OC5OC(C)C(O)C(C)(O)C5OC)C(C)O4)C(N(C)C)C2O)C3=O)CC1(C)O (stereo not drawn) | 70.1 | > 10000 | 131
CCNC(=O)C=Cc1ccc(C(C)(C)C)cc1 | 719 | > 100000 | 616
Cc1nc2ccc(Cl)cc2c(O)c1I | 714 | > 100000 | 3470
O=C(CSc1nccn1C1CCCC1)Nc1cc(C(F)(F)F)ccc1Cl | 714 | > 100000 | 545
COc1cc(C=NNc2nc3ccccc3[nH]2)ccc1O | 307 | 43100 | 205
COC(=O)C1=C(C)NC2=C(C(=O)CC(c3ccc(OC)c(OC)c3)C2)C1c1ccc([N+](=O)[O-])cc1 (stereo not drawn) | 704 | > 100000 | 2680
COc1ccc(Nc2nc(NN=Cc3cccc(F)c3)nc(Nc3ccc([N+](=O)[O-])cc3)n2)cc1 | 704 | > 100000 | 662
CCCN1CCc2c(sc3nc(SCC(=O)OC)nc(N)c23)C1 | 710 | > 100000 | 1660
CCN(CC)CCNC(=O)c1cc(-c2cc3ccccc3s2)cc(-n2cnnn2)c1 | 151 | 21300 | 61.6
COc1cc2c(N3CCOCC3)cc(O)c(CC(=O)Nc3ccccc3)c2cc1OC | 712 | > 100000 | 626
COc1ccc(-c2cn3c([n+]2-c2ccccc2)SCC3)cc1 | 709 | > 100000 | 582
CCCCOc1ccc(C=CC(=O)NCc2ccco2)cc1 | 717 | > 100000 | 1070
COc1cccc(NC(=O)Cn2c(C)c(C(C)=O)c3ccccc32)c1 | 713 | > 100000 | 1760
CN(C)CCCNC1=NC=NC2C=C(Cl)C=CC12 (stereo not drawn) | 713 | > 100000 | 290
O=C(Nc1ccc(Cl)cc1)Nc1ccc(Br)cn1 | 712 | > 100000 | > 12500
COc1ccc(Nc2nc(NN=Cc3cccc(Cl)c3)nc(Nc3ccc([N+](=O)[O-])cc3)n2)cc1 | 717 | > 100000 | 603
CCCC(=O)N(CCCC(C)Nc1cc(OC)cc2cccnc12)Cc1ccc(F)cc1 (stereo not drawn) | 71.4 | > 10000 | 385
CN(CCCNc1ccc(C(=O)Nc2ccc(C(F)(F)F)cc2)cc1[N+](=O)[O-])Cc1ccccc1 | 720 | > 100000 | 316
COc1ccc(N2C(=O)[C@@H]3C[C@H]2CN3C(=O)c2cccc(Cn3nc(C)cc3C)c2)cc1Cl | 26.7 | > 3800 | > 1250
CCOC(=O)C1=C(C)NC2=C(C(=O)C(C(=O)OCC)C(c3ccccc3OC)C2)C1c1cc(OC)c(OC)c(OC)c1 (stereo not drawn) | 713 | > 100000 | 1500
Cc1cccc(N2C(=O)C3C(C2=O)C2(c4ccccc4)C(=O)C3(c3ccccc3)C(c3ccccc3)=C2c2ccccc2)c1 (stereo not drawn) | 700 | > 100000 | 1640
CCCCOc1nc(-c2ccc(OC)cc2)n(C(=O)c2ccccc2OC)n1 | 717 | > 100000 | 8970
Fc1ccc(-c2cn3c([n+]2-c2ccccc2)SCC3)cc1 | 713 | > 100000 | 1090
CC(=O)Nc1nc(C)c(-c2csc(Nc3ccc(C)cc3)n2)s1 | 166 | 23600 | 240
